Here are results for 19 compounds from patent US12037324B2, “Biarylmethyl heterocycles” (Université de Montréal, priority 2016, dated 2024).

Each structure is given as a SMILES string.

Assay type in all cases: cell-based
For experiment [1], the target named is T1, hAT1R (Homo sapiens, UniProt P30556).
T1 sequence (P30556 1-359): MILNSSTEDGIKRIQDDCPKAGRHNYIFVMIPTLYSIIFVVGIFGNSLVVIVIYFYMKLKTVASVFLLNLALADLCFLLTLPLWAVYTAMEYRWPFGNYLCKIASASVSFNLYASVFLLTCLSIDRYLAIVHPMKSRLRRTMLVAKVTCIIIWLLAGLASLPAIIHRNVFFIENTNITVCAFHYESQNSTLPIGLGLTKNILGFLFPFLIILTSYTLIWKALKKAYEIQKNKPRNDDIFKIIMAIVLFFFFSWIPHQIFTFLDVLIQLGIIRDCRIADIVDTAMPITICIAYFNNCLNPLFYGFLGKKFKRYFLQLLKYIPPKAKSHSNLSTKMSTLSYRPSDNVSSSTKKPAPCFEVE
Briefly: BRET β-arrestin2 biosensor assay, higher receptor expression (hAT1R 5 ng/well), HEK293 cells. The settings on record: for EC50: High AT1R Expression.

Experiment [2] addresses T2, AGTR1 (Homo sapiens, UniProt P30556).
T2 construct: host or cells: Pathunter CHO-K1 AGTR1 β-arrestin cell line (CHO-K1)
T2 sequence (P30556 1-359): T1 sequence (P30556 1-359)
Nature of the experiment: DiscoveRx IP1 accumulation assay (HTRF), agonist mode, Pathunter CHO-K1 AGTR1 β-arrestin cell line. The settings on record: for EC50: read-out: IP-1 EC50. In short, it runs like this:
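Agonist mode in CHO-K1 AGTR1 β-arrestin cells plated 14-16 h before; compounds at varying concentrations for 90 min at 37° C, IP1 accumulation read by HTRF (D2-conjugate and anti-IP1 cryptate, 20 min room temperature). EC50 from 4-parameter logistic fit; activity given as percentage of maximal AII effect.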

In experiment [3] the target is T2, AGTR1. Nature of the experiment: DiscoveRx β-arrestin2 recruitment assay (enzyme complementation, Pathunter CHO-K1 AGTR1 β-arrestin cell line). The following applies: DiscoveRx β-arrestin2 recruitment; for DiscoveRx β-arrestin2 Ymax (%): maximal response. The method in brief: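 Chemiluminescent enzyme-complementation read-out of β-arrestin2 recruitment to AGTR1 in engineered CHO-K1 cells after 90 min compound exposure at 37° C. Values are 4-parameter logistic EC50s in agonist mode, IC50s in antagonist mode, with efficacy relative to the maximal All response.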

In the case of `CCCCC1=NC2(CCCC2)C(=O)N1Cc1ccc(-c2cc(-c3cccc(C(F)(F)F)n3)ccc2-c2nn[nH]n2)cc1` [Example 142], in experiment [1], the “BRET β-Arrestin2 High AT1R Expression Ymax (%)” value was 82.9% and the EC50 came out at 0.0592 µM. In experiment [2], the “IP-1 Ymax (%)” value is reported as 4.8% and the EC50 was determined as 0.14 µM. Further, in experiment [3], the EC50 came to 0.0275 µM and the “DiscoveRx β-arrestin2 Ymax (%)” value was 22.7%.

With `CCc1nc2c(C)cc(C)nc2n1Cc1ccc(-c2cc(Oc3cccc(OC(F)(F)F)c3)ccc2-c2nnn[nH]2)cc1` [Example 207], in experiment [1], the “BRET β-Arrestin2 High AT1R Expression Ymax (%)” value was determined as 74.8% and the EC50 is 0.022 µM. Further, in experiment [2], the “IP-1 Ymax (%)” value was found to be 2.5% and the EC50 was 0.0391 µM. In addition, in experiment [3], the 50% effective concentration (EC50) worked out at 0.0115 µM and the “DiscoveRx β-arrestin2 Ymax (%)” value is 23.1%.

`CCc1nc2c(C)cc(C)nc2n1Cc1ccc(-c2cc(N(C)c3ccccc3)ccc2-c2nn[nH]n2)cc1` [Example 94]: in experiment [1], the “BRET β-Arrestin2 High AT1R Expression Ymax (%)” value worked out at 76.8% and the midpoint of the response, the EC50, lay at 0.0208 µM. For the same compound, in experiment [2], the “IP-1 Ymax (%)” value came to 9.0% and the half-maximal effective concentration (EC50) was found to be 0.0327 µM. Also, in experiment [3], it took 0.0131 µM to reach a half-maximal effect (EC50) and the “DiscoveRx β-arrestin2 Ymax (%)” value is 35.9%.

Regarding `CCc1nc2c(C)cc(C)nc2n1Cc1ccc(-c2cc(N3CCCC(C)(C)C3)ccc2-c2nn[nH]n2)cc1` [Example 98, 3-((5′-(3,3-dimethylpiperidin-1-yl)-2′-(2H-tetrazol-5-yl)-[1,1′-biphenyl]-4-yl)methyl)-2-ethyl-5,7-dimethyl-3H-imidazo[4,5-b]pyridine], in experiment [1], the “BRET β-Arrestin2 High AT1R Expression Ymax (%)” value stood at 86.6% and a half-maximal response (EC50) required 0.0203 µM. Also, in experiment [2], the “IP-1 Ymax (%)” value was 6.6% and the EC50 is 0.0267 µM. Moreover, in experiment [3], the EC50 amounted to 0.0188 µM and the “DiscoveRx β-arrestin2 Ymax (%)” value was found to be 72.9%.

Turning to `CCCCOC(=O)NS(=O)(=O)c1sc(-c2ccccc2C(F)(F)F)cc1-c1ccc(Cn2c(CC)nc3c(C)cc(C)nc32)cc1` [Example 45, Butyl (3-(4-((2-ethyl-5,7-dimethyl-3H-imidazo[4,5-b]pyridin-3-yl)methyl)phenyl)-5-(2-(trifluoromethyl)phenyl)thiophen-2-yl)sulfonylcarbamate], in experiment [1], the “BRET β-Arrestin2 High AT1R Expression Ymax (%)” value turned out to be 92.2% and the EC50 was determined as 0.0347 µM. Moreover, in experiment [2], the “IP-1 Ymax (%)” value was 14.5% and the EC50 stood at 0.0144 µM. Besides, in experiment [3], the EC50 is 0.0246 µM and the “DiscoveRx β-arrestin2 Ymax (%)” value was 60.3%.

As for `CCCCC1=NC2(CCCC2)C(=O)N1Cc1ccc(-c2cc(-c3ccc(OC(F)(F)F)cc3)ccc2-c2nn[nH]n2)cc1` [Example 134], in experiment [1], the “BRET β-Arrestin2 High AT1R Expression Ymax (%)” value came to 77.0% and the EC50 was 0.158 µM. Also, in experiment [2], the “IP-1 Ymax (%)” value came out at 4.0% and the EC50 stood at 0.102 µM. Moreover, in experiment [3], the midpoint of the response, the EC50, lay at 0.0735 µM and the “DiscoveRx β-arrestin2 Ymax (%)” value is reported as 40.3%.

As to `CCCCOC(=O)NS(=O)(=O)c1sc(-c2cccnc2OC)cc1-c1ccc(Cn2c(CC)nc3c(C)cc(C)nc32)cn1` [Example 48, Butyl (3-(5-((2-ethyl-5,7-dimethyl-3H-imidazo[4,5-b]pyridin-3-yl)methyl)pyridin-2-yl)-5-(2-methoxypyridin-3-yl)thiophen-2-yl)sulfonylcarbamate], in experiment [1], the “BRET β-Arrestin2 High AT1R Expression Ymax (%)” value amounted to 43.8% and the EC50 came to 0.0406 µM. In addition, in experiment [2], the “IP-1 Ymax (%)” value is listed as 10.0% and the EC50 came out at 0.357 µM. Moreover, in experiment [3], the EC50 amounted to 0.106 µM and the “DiscoveRx β-arrestin2 Ymax (%)” value is 20.6%.

As for `CCc1nc2c(C)cc(C)nc2n1Cc1ccc(-c2cc(Oc3ccccc3)cc(C)c2-c2nnn[nH]2)cc1` [Example 211, 2-Ethyl-5,7-dimethyl-3-((3′-methyl-5′-phenoxy-2′-(1H-tetrazol-5-yl)-[1,1′-biphenyl]-4-yl)methyl)-3H-imidazo[4,5-b]pyridine], in experiment [1], the “BRET β-Arrestin2 High AT1R Expression Ymax (%)” value is 80.2% and the EC50 worked out at 0.067 µM. For the same compound, in experiment [2], the “IP-1 Ymax (%)” value is recorded as 8.7% and the EC50 is 0.235 µM. Also, in experiment [3], the EC50 is 0.0968 µM and the “DiscoveRx β-arrestin2 Ymax (%)” value amounted to 21.2%.

`CCCCC1=NC2(CCCC2)C(=O)N1Cc1ccc(-c2cc(N3CCC[C@H](C)C3)ccc2-c2nn[nH]n2)cc1` [Example 104]: in experiment [1], the “BRET β-Arrestin2 High AT1R Expression Ymax (%)” value was found to be 23.4% and it took 0.346 µM to reach a half-maximal effect (EC50). The concentration for a half-maximal effect (EC50) in experiment [2] was more than 100 µM. Besides, in experiment [3], the midpoint of the response, the EC50, lay at 0.116 µM and the “DiscoveRx β-arrestin2 Ymax (%)” value was 9.1%.

For `CCc1nc2c(C)cc(C)nc2n1Cc1ccc(-c2cc(-c3cnn(C)c3)ccc2-c2nn[nH]n2)cc1` [Example 21], in experiment [1], the “BRET β-Arrestin2 High AT1R Expression Ymax (%)” value worked out at 64.0% and a half-maximal effect (EC50) was put at 0.0514 µM. In experiment [2], the “IP-1 Ymax (%)” value stood at 6.9% and the half-maximal effective concentration (EC50) was 0.0773 µM. In experiment [3], the EC50 was determined as 0.0221 µM and the “DiscoveRx β-arrestin2 Ymax (%)” value came out at 21.1%.

For `CCCCC1=NC2(CCCC2)C(=O)N1Cc1ccc(-c2cc(N3CCC[C@@H](C)C3)ccc2-c2nn[nH]n2)cc1` [Example 106], in experiment [1], the “BRET β-Arrestin2 High AT1R Expression Ymax (%)” value worked out at 12.4%. The EC50 in experiment [1] is 0.138 µM; in experiment [2], more than 100 µM; in experiment [3], 0.0176 µM. Further, in experiment [3], the “DiscoveRx β-arrestin2 Ymax (%)” value amounted to 6.3%.

Take `CCc1nc2c(C)cc(C)nc2n1Cc1ccc(-c2cc(C3=NCCC3)ccc2-c2nn[nH]n2)cc1` [Example 77, 3-((5′-(3,4-dihydro-2H-pyrrol-5-yl)-2′-(2H-tetrazol-5-yl)-[1,1′-biphenyl]-4-yl)methyl)-2-ethyl-5,7-dimethyl-3H-imidazo[4,5-b]pyridine]: in experiment [1], the “BRET β-Arrestin2 High AT1R Expression Ymax (%)” value turned out to be 77.1% and the EC50 stood at 0.0906 µM. Further, in experiment [2], the “IP-1 Ymax (%)” value was 7.1% and the EC50 amounted to 0.204 µM. Besides, in experiment [3], it took 0.0602 µM to reach a half-maximal effect (EC50) and the “DiscoveRx β-arrestin2 Ymax (%)” value came to 21.1%.

As to `CCc1nc2c(C)cc(C)nc2n1Cc1ccc(-c2cc(-n3cccc3)ccc2-c2nn[nH]n2)cc1` [Example 90], in experiment [1], the “BRET β-Arrestin2 High AT1R Expression Ymax (%)” value worked out at 77.7% and it took 0.0277 µM to reach a half-maximal effect (EC50). In addition, in experiment [2], the “IP-1 Ymax (%)” value was 6.0% and the EC50 is 0.0398 µM. Moreover, in experiment [3], a half-maximal response (EC50) required 0.0554 µM and the “DiscoveRx β-arrestin2 Ymax (%)” value amounted to 23.2%.

`CCCCC1=NC2(CCCC2)C(=O)N1Cc1ccc(-c2cc(N3CC(C)(C)c4ccccc43)ccc2-c2nn[nH]n2)cc1` [Example 107]: the “BRET β-Arrestin2 High AT1R Expression Ymax (%)” value in experiment [1] came out at 54.3%. For the same compound, the EC50 in experiment [1] was 0.226 µM; in experiment [2] it was more than 100 µM; in experiment [3] it was 0.0267 µM. For the same compound, the “DiscoveRx β-arrestin2 Ymax (%)” value in experiment [3] is listed as 24.6%.

On to `CCCCC1=NC2(CCCC2)C(=O)N1Cc1ccc(-c2cc(N3CCC(C)CC3)ccc2-c2nn[nH]n2)cc1` [Example 100], for which, in experiment [1], the “BRET β-Arrestin2 High AT1R Expression Ymax (%)” value amounted to 19.4% and it took 0.155 µM to reach a half-maximal effect (EC50). Also, in experiment [2], the “IP-1 Ymax (%)” value was determined as 6.1% and the EC50 was found to be 0.0499 µM. In experiment [3], a half-maximal response (EC50) required 0.0288 µM and the “DiscoveRx β-arrestin2 Ymax (%)” value turned out to be 12.7%.

As for `CCCCC1=NC2(CCCC2)C(=O)N1Cc1ccc(-c2cc(-c3cscn3)ccc2-c2nn[nH]n2)cc1` [Example 137], the “BRET β-Arrestin2 High AT1R Expression Ymax (%)” value in experiment [1] worked out at 12.2%. Further, the concentration giving a half-maximal response (EC50) in experiment [1] is 0.0353 µM; in experiment [2], more than 100 µM; in experiment [3] it was more than 100 µM.

On to `CCCCC1=NC2(CCCC2)C(=O)N1Cc1ccc(-c2cc(-n3ccc4ccc(F)cc43)ccc2-c2nn[nH]n2)cc1` [Example 109], for which, in experiment [1], the “BRET β-Arrestin2 High AT1R Expression Ymax (%)” value is listed as 59.9% and the EC50 worked out at 0.0731 µM. Besides, the concentration for a half-maximal effect (EC50) in experiment [2] is more than 100 µM. Also, in experiment [3], it took 0.0196 µM to reach a half-maximal effect (EC50) and the “DiscoveRx β-arrestin2 Ymax (%)” value is listed as 17.4%.

For `CCCCC1=NC2(CCCC2)C(=O)N1Cc1ccc(-c2cc(N3CCCC(F)(F)C3)ccc2-c2noc(=O)[nH]2)cc1` [Example 121, 3-(4′-((2-butyl-4-oxo-1,3-diazaspiro[4.4]non-1-en-3-yl)methyl)-5-(3,3-difluoropiperidin-1-yl)-[1,1′-biphenyl]-2-yl)-1,2,4-oxadiazol-5(4H)-one], in experiment [1], the “BRET β-Arrestin2 High AT1R Expression Ymax (%)” value is recorded as 98.0% and the midpoint of the response, the EC50, lay at 0.431 µM. In experiment [2], the “IP-1 Ymax (%)” value worked out at 7.2% and the 50% effective concentration (EC50) came out at 0.368 µM. For the same compound, in experiment [3], the EC50 stood at 0.302 µM and the “DiscoveRx β-arrestin2 Ymax (%)” value was 47.4%.

For the compound `CCCCC1=NC2(CCCC2)C(=O)N1Cc1ccc(-c2cc(-c3ccccc3)ccc2C(=O)O)cc1` [Example 145, 4″-((2-butyl-4-oxo-1,3-diazaspiro[4.4]non-1-en-3-yl)methyl)-[1,1′:3′,1″-terphenyl]-4′-carboxylic acid], in experiment [1], the “BRET β-Arrestin2 High AT1R Expression Ymax (%)” value was 81.5% and the concentration giving a half-maximal response (EC50) was found to be 0.0644 µM. Moreover, in experiment [2], the “IP-1 Ymax (%)” value worked out at 3.1% and the EC50 came out at 0.0571 µM. Also, in experiment [3], the EC50 came out at 0.0273 µM and the “DiscoveRx β-arrestin2 Ymax (%)” value was 36.3%.
